The subject of assay [1] is SARS-CoV-2. Put plainly: Antiviral activity against SARS-CoV-2 WA1 harboring NSP5 L50F/E166V mutant infected in HEK293T cells measured after 48 hrs by Nano-Glo luciferase assay. Type of assay: functional, organism-based, Severe acute respiratory syndrome coronavirus 2.
The subject of assay [2] is SARS-CoV-2. Put plainly: Selectivity ratio of EC50 for antiviral activity against SARS-CoV-2 WA1 harboring NSP5 L50F/E166V mutant infected in HEK293T cells to EC50 for antiviral activity against wild type SARS-CoV-2 WA1 infected in HEK293T cells. Type of assay: functional.
The subject of assay [3] is SARS-CoV-2. Put plainly: Antiviral activity against SARS-CoV-2 Omicron BA.1 harboring NSP5 L50F/E166A/L167F mutant infected in HEK293T cells measured after 48 hrs by Nano-Glo luciferase assay. In kind it is functional, organism-based, Severe acute respiratory syndrome coronavirus 2.
Assay [4] deals with SARS-CoV-2. Put plainly: Antiviral activity against SARS-CoV-2 WA1 harboring NSP5 E166V mutant infected in HEK293T cells measured after 48 hrs by Nano-Glo luciferase assay. Type of assay: functional, organism-based, Severe acute respiratory syndrome coronavirus 2.
Assay [5] relates to SARS-CoV-2. Kind of assay: Antiviral activity against SARS-CoV-2 WA1 harboring NSP5 L50F/E166A/L167F mutant infected in HEK293T cells measured after 48 hrs by Nano-Glo luciferase assay. Type of assay: functional, organism-based, Severe acute respiratory syndrome coronavirus 2.
The test system of assay [6] is SARS-CoV-2. Put plainly: Selectivity ratio of EC50 for antiviral activity against SARS-CoV-2 Omicron BA.1 harboring NSP5 L50F/E166V mutant infected in HEK293T cells to EC50 for antiviral activity against wild type SARS-CoV-2 Omicron BA.1 infected in HEK293T cells. Type of assay: functional.
Assay [7] has as its system SARS-CoV-2. Put plainly: Selectivity ratio of EC50 for antiviral activity against SARS-CoV-2 WA1 harboring NSP5 L50F/E166A/L167F mutant infected in HEK293T cells to EC50 for antiviral activity against wild type SARS-CoV-2 WA1 infected in HEK293T cells. In kind it is functional.
The test system of assay [8] is SARS-CoV-2. Put plainly: Selectivity ratio of EC50 for antiviral activity against SARS-CoV-2 WA1 harboring NSP5 E166V mutant infected in HEK293T cells to EC50 for antiviral activity against wild type SARS-CoV-2 WA1 infected in HEK293T cells. Type of assay: functional.
Assay [9] concerns SARS-CoV-2. Kind of assay: Selectivity ratio of EC50 for antiviral activity against SARS-CoV-2 Omicron BA.1 harboring NSP5 E166V mutant infected in HEK293T cells to EC50 for antiviral activity against wild type SARS-CoV-2 Omicron BA.1 infected in HEK293T cells. In kind it is functional.
For assay [10], the system named is SARS-CoV-2. Kind of assay: Selectivity ratio of EC50 for antiviral activity against SARS-CoV-2 Omicron BA.1 harboring NSP5 L50F/E166A/L167F mutant infected in HEK293T cells to EC50 for antiviral activity against wild type SARS-CoV-2 Omicron BA.1 infected in HEK293T cells. Type of assay: functional.
The test system of assay [11] is SARS-CoV-2. Kind of assay: Antiviral activity against SARS-CoV-2 Omicron BA.1 harboring NSP5 E166V mutant infected in HEK293T cells measured after 48 hrs by Nano-Glo luciferase assay. In kind it is functional, organism-based, Severe acute respiratory syndrome coronavirus 2.
Assay [12] has as its system SARS-CoV-2. Put plainly: Antiviral activity against SARS-CoV-2 Omicron BA.1 harboring NSP5 L50F/E166V mutant infected in HEK293T cells measured after 48 hrs by Nano-Glo luciferase assay. In kind it is functional, organism-based, Severe acute respiratory syndrome coronavirus 2.
The subject of assay [13] is SARS-CoV-2. Put plainly: Antiviral activity against SARS-CoV-2 WA1 harboring NSP5 T21I mutant infected in HEK293T cells measured after 48 hrs by Nano-Glo luciferase assay. In kind it is functional, organism-based, Severe acute respiratory syndrome coronavirus 2.
Assay [14] has as its system SARS-CoV-2. Kind of assay: Antiviral activity against SARS-CoV-2 Omicron BA.1 harboring NSP5 T21I mutant infected in HEK293T cells measured after 48 hrs by Nano-Glo luciferase assay. In kind it is functional, organism-based, Severe acute respiratory syndrome coronavirus 2.
Assay [15] deals with SARS-CoV-2. Put plainly: Antiviral activity against SARS-CoV-2 WA1 harboring NSP5 T21I/E166V mutant infected in HEK293T cells measured after 48 hrs by Nano-Glo luciferase assay. In kind it is functional, organism-based, Severe acute respiratory syndrome coronavirus 2.
The test system of assay [16] is SARS-CoV-2. Put plainly: Antiviral activity against SARS-CoV-2 Omicron BA.1 harboring NSP5 T21I/E166V mutant infected in HEK293T cells measured after 48 hrs by Nano-Glo luciferase assay. In kind it is functional, organism-based, Severe acute respiratory syndrome coronavirus 2.
Assay [17] concerns SARS-CoV-2. Put plainly: Selectivity ratio of EC50 for antiviral activity against SARS-CoV-2 WA1 harboring NSP5 T21I mutant infected in HEK293T cells to EC50 for antiviral activity against wild type SARS-CoV-2 WA1 infected in HEK293T cells. Type of assay: functional.
Assay [18] concerns SARS-CoV-2. Kind of assay: Selectivity ratio of EC50 for antiviral activity against SARS-CoV-2 Omicron BA.1 harboring NSP5 T21I/E166V mutant infected in HEK293T cells to EC50 for antiviral activity against wild type SARS-CoV-2 Omicron BA.1 infected in HEK293T cells. Type of assay: functional.
Assay [19] deals with SARS-CoV-2. Kind of assay: Selectivity ratio of EC50 for antiviral activity against SARS-CoV-2 WA1 harboring NSP5 T21I/E166V mutant infected in HEK293T cells to EC50 for antiviral activity against wild type SARS-CoV-2 WA1 infected in HEK293T cells. In kind it is functional.
Assay [20] concerns SARS-CoV-2. Kind of assay: Selectivity ratio of EC50 for antiviral activity against SARS-CoV-2 Omicron BA.1 harboring NSP5 T21I mutant infected in HEK293T cells to EC50 for antiviral activity against wild type SARS-CoV-2 Omicron BA.1 infected in HEK293T cells. In kind it is functional.

The EC50 is the concentration that produces a half-maximal response. A low value points to higher potency in that assay. Regarding `CCC(CC)COC(=O)[C@H](C)N[P@](=O)(OC[C@H]1O[C@@](C#N)(c2ccc3c(N)ncnn23)[C@H](O)[C@@H]1O)Oc1ccccc1`, the EC50 in assay [1] came to 7 nM; in assay [3], 9 nM; in [4], 11 nM; in assay [5] it was 11 nM; in assay [11] it was 6 nM; in assay [12] it was 6 nM. Moreover, the “Ratio EC50” value stood at 0.7 in assay [2]; 0.4 in assay [6]; 1.1 in [7]; 1.1 in assay [8]; 0.4 in [9]; 0.7 in [10].

On to `CC(C)(C)[C@H](NC(=O)C(F)(F)F)C(=O)N1C[C@H]2[C@@H]([C@H]1C(=O)N[C@H](C#N)C[C@@H]1CCNC1=O)C2(C)C`, for which the EC50 in assay [13] worked out at 80 nM; in assay [1] it was 3900 nM; in [3], 2900 nM; in assay [14], 280 nM; in assay [4], 4500 nM; in assay [5], 610 nM. Moreover, the EC50 turned out to be 8500 nM in [15], 12000 nM in assay [16], 7300 nM in assay [11] and 8600 nM in assay [12].

Take `Cc1cc(C(=O)N[C@@H](Cc2cccc3ccccc23)C(=O)N[C@@H](CC(C)C)C(=O)N[C@H](C=O)C[C@@H]2CCCNC2=O)no1`: the EC50 in [13] stood at 360 nM; in assay [1], 170 nM; in [3], 490 nM; in assay [14] it was 680 nM; in assay [4], 130 nM; in assay [5] it was 390 nM. The EC50 in assay [15] amounted to 170 nM; in assay [16], 150 nM; in assay [11], 80 nM; in assay [12] it was 150 nM. Moreover, the “Ratio EC50” value in assay [17] is recorded as 1.8; in [2] it was 0.9; in assay [18], 0.5; in assay [6] it was 0.5; in assay [19], 0.8; in [7], 2. Besides, the “Ratio EC50” value in assay [8] came out at 0.6; in [9] it was 0.2; in assay [10], 1.5; in assay [20], 2.1.
